# Source: patent US20060004197A1, “Sulfonamide-based compounds as protein tyrosine kinase inhibitors” (priority 2004, published 2006)
# Biological target: T1, Recombinant human Src (Homo sapiens, UniProt P12931)
# T1 construct: made in house; host or cells: baculovirus-insect cell system
# Test: Src tyrosine kinase activity, poly E4Y / 32P-ATP phosphorylation assay
# Type: biochemical
# Settings: Table 6, Formula V compounds; compound at 15 μg/mL; read-out: % Inhibition at 15 μg/mL Src (%)
# T1 sequence (P12931 whole entry): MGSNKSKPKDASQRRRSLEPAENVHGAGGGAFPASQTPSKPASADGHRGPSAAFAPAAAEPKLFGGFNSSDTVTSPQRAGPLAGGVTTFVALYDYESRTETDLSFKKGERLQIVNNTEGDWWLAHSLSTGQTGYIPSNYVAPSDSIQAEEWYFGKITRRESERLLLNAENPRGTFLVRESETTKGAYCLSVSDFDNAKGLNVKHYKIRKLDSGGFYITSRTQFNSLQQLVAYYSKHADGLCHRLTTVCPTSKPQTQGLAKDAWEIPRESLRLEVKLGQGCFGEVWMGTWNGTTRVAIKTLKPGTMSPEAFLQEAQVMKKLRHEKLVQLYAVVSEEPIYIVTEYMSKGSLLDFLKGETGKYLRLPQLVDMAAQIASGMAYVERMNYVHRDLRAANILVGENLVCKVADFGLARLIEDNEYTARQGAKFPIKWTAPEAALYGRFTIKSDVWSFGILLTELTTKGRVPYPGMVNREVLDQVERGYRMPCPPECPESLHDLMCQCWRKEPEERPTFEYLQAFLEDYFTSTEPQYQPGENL
row,inhibition at 15 µg/mL,Structure (SMILES)
1,21%,"COc1ccc(Oc2ccc3[nH]c(=O)n(S(=O)(=O)c4ccc(C)cc4)c3c2)cc1 [Compound 72a, 6-(4-methoxy-phenoxy)-1-(4-toluenesulfonyl)-1,3-dihydro-benzoimidazol-2-one]"
2,19%,"COc1ccc(Oc2ccc3c(c2)[nH]c(=O)n3S(=O)(=O)c2ccc(C)cc2)cc1 [Compound 72b, 5-(4-methoxy-phenoxy)-1-(4-toluenesulfonyl)-1,3-dihydro-benzoimidazol-2-one]"

# Same assay, conditions: compound at 15 μg/mL; read-out: % Inhibition at 15 μg/mL Src %
row,Structure (SMILES),inhibition at 15 µg/mL
1,"COc1ccc(Oc2ccc(NC(=O)c3ccc(C(F)(F)F)nc3)c(NS(=O)(=O)c3ccc(C)cc3)c2)cc1 [Compound 71c, N-[4-(4-methoxy-phenoxy)-2-(4-toluenesulfonylamino)-phenyl]-6-trifluoromethyl-nicotinamide]",5%
2,"COc1ccc(Oc2cc(N)c(NS(=O)(=O)c3ccc(C)cc3)cc2C(F)(F)F)cc1 [Compound 71ee, N-[2-amino-4-(4-methoxy-phenoxy)-5-trifluoromethyl-phenyl]-4-toluenesulfonamide]",21%
3,"COc1ccc(Oc2ccc(NCc3ccc4ccccc4n3)c(NS(=O)(=O)c3ccc(C)cc3)c2)cc1 [Compound 71g, N-{5-(4-methoxy-phenoxy)-2-[(quinolin-2-ylmethyl)-amino]-phenyl}-4-toluenesulfonamide]",10%
4,"COc1ccc(Oc2ccc(NS(=O)(=O)c3ccc(C)cc3)c(NCc3ccc(C)cc3)c2)cc1 [Compound 71hh, N-[4-(4-methoxy-phenoxy)-2-(4-methyl-benzylamino)-phenyl]-4-toluenesulfonamide]",23%
5,"COc1ccc(Oc2ccc(N)c(CNS(=O)(=O)c3ccc(C)cc3)c2)cc1 [Compound 71i, N-[2-amino-5-(4-methoxy-phenoxy)-benzyl]-4-toluenesulfonamide]",13%
6,"COc1ccc(Oc2ccc(NS(=O)(=O)c3ccc(C)cc3)c(NC(=O)NS(=O)(=O)c3ccc(C)cc3)c2)cc1 [Compound 71ii, N-{4-(4-methoxy-phenoxy)-2-[3-(4-toluenesulfonyl)-ureido]-phenyl}-4-toluenesulfonamide]",21%
7,"COc1ccc(Oc2ccc(NCc3ccc(C)cc3)c(NS(=O)(=O)c3ccc(C)cc3)c2)cc1 [Compound 71jj, N-[5-(4-methoxy-phenoxy)-2-(4-methyl-benzylamino)-phenyl]-4-toluenesulfonamide]",19%
8,"Nc1cc(SCc2ccccc2Cl)c([N+](=O)[O-])cc1NS(=O)(=O)c1ccc(Cl)c2nonc12 [Compound 71ll, N-[2-amino-4-(2-chloro-benzylsulfanyl)-5-nitro-phenyl]-7-chloro-benzo[1,2,5]oxadiazole-4-sulfonamide]",26%
9,"CCc1ccc(NS(=O)(=O)c2ccc(OC)cc2NS(=O)(=O)c2ccc(C)cc2)cc1 [Compound 71mm, N-(4-ethyl-phenyl)-4-methoxy-2-(4-toluenesulfonylamino)-benzenesulfonamide]",19%
10,"COc1ccc(Oc2ccc(NS(=O)(=O)c3ccc(C)cc3)c(N=Cc3ccc4ccccc4n3)c2)cc1 [Compound 71u, N-{4-(4-methoxy-phenoxy)-2-[(quinolin-2-ylmethylene)-amino]-phenyl}-4-toluenesulfonamide]",6%
11,"COc1ccc(OCc2ccc(CNS(C)(=O)=O)c(NS(=O)(=O)c3ccc4cc(C)ccc4c3)c2)cc1 [Compound 71x, N-[2-(methanesulfonylamino-methyl)-5-(4-methoxy-phenoxymethyl)-phenyl]-6-methyl-naphthalene-2-sulfonamide]",20%
12,"Cc1ccc(C(=O)Nc2cc(N3CCOCC3)c([N+](=O)[O-])cc2NC(=O)c2ccc(C)cc2)cc1 [Compound 71y, N-(4-morpholin-4-yl-5-nitro-2-(4-toluoylamino)-phenyl)-4-toluamide]",14%
13,"CCCC(=O)Nc1cc(Oc2ccc(OC)cc2)ccc1NS(=O)(=O)c1ccc(C)cc1 [Compound 71z, N-[5-(4-methoxy-phenoxy)-2-(4-toluenesulfonylamino)-phenyl]-butyramide]",5%

# Results, then the molecule that gave them:
row,inhibition at 15 µg/mL,Structure (SMILES)
1,22%,"Cc1ccc(C(=O)Nc2cc(NCc3cccc4ccccc34)c([N+](=O)[O-])cc2NC(=O)c2ccc(C)cc2)cc1 [Compound 71bb, N-{4-[(naphthalen-1-ylmethyl)-amino]-5-nitro-2-(4-toluoylamino)-phenyl}-4-toluamide]"
2,15%,"COc1ccc(Oc2cc(N)c(NS(=O)(=O)c3ccc(C)cc3)cc2[N+](=O)[O-])cc1 [Compound 71cc, N-[2-amino-4-(4-methoxy-phenoxy)-5-nitro-phenyl]-4-toluenesulfonamide]"
3,4%,"COc1ccc(OCc2ccc(CNC(=O)c3ccc(C)cc3)c(NS(=O)(=O)c3ccc(C)cc3)c2)cc1 [Compound 71ff, N-[4-(4-methoxy-phenoxymethyl)-2-(4-toluenesulfonylamino)-benzyl]-4-toluamide]"
4,19%,"COc1ccc(Oc2cc(NS(=O)(=O)c3ccc(C)cc3)c(N)cc2C(F)(F)F)cc1 [Compound 71gg, N-[2-amino-5-(4-methoxy-phenoxy)-4-trifluoromethyl-phenyl]-4-toluenesulfonamide]"
5,0%,"COc1ccc(Oc2ccc(NS(=O)(=O)c3ccc(C)cc3)c(NC(=O)c3cnc(C)cn3)c2)cc1 [Compound 71h, N-[5-(4-methoxy-phenoxy)-2-(4-toluenesulfonylamino)-phenyl]-5-methyl-pyrazine-2-carboxamide]"
6,29%,"Cc1ccc(S(=O)(=O)Nc2cc(SCc3ccccc3Cl)ccc2N)cc1 [Compound 71kk, N-[2-amino-5-(2-chloro-benzylsulfanyl)-phenyl]-4-toluenesulfonamide]"
7,46%,"Cc1ccc(S(=O)(=O)Nc2ccc(S(=O)(=O)Cc3ccccc3Cl)cc2NS(=O)(=O)c2ccc(C)cc2)cc1 [Compound 71nn, N-[4-(2-chloro-phenylmethanesulfonyl)-2-(4-toluenesulfonylamino)-phenyl]-4-toluenesulfonamide]"
8,10%,"COc1ccc(Oc2ccc(NC(=O)Cc3ccccc3)c(NS(=O)(=O)c3ccc(C)cc3)c2)cc1 [Compound 71s, N-[4-(4-methoxy-phenoxy)-2-(4-toluenesulfonylamino)-phenyl]-2-phenyl-acetamide]"
9,0%,"COc1ccc(Oc2ccc(N)c(N(C)S(=O)(=O)c3ccc(C)cc3)c2)cc1 [Compound 71t, N-[2-amino-5-(4-methoxy-phenoxy)-phenyl]-N-methyl-4-toluenesulfonamide]"
10,10%,"COc1ccc(OCc2ccc(C(N)=O)c(NS(=O)(=O)c3ccc(C)cc3)c2)cc1 [Compound 71v, 4-(4-methoxy-phenoxymethyl)-2-(4-toluenesulfonylamino)-benzamide]"
11,9%,"COc1ccc(OCc2ccc(CN)c(NS(=O)(=O)c3ccc(C)cc3)c2)cc1 [Compound 71w, N-[2-aminomethyl-5-(4-methoxy-phenoxymethyl)-phenyl]-4-toluenesulfonamide]"

# Same assay, conditions: poly E4Y / 32P-ATP; Formula IV compounds
row,Structure (SMILES),IC50
1,"COc1ccc(Oc2ccc(NS(=O)(=O)c3ccc(C)cc3)c(N)c2)cc1 [Compound 71l, N-[2-amino-4-(4-methoxy-phenoxy)-phenyl]-4-toluenesulfonamide]",62 µM
2,"COc1ccc(Oc2ccc(NS(=O)(=O)c3ccc(C)cc3)c(CNS(=O)(=O)c3ccc(C)cc3)c2)cc1 [Compound 71m, N-[4-(4-methoxy-phenoxy)-2-(4-toluenesulfonylamino-methyl)-phenyl]-4-toluenesulfonamide]",136 µM
3,"COc1ccc(Oc2ccc(NS(=O)(=O)c3ccc(C)cc3)c(NC(=O)c3ccc(C)cc3)c2)cc1 [Compound 71q, N-[5-(4-methoxy-phenoxy)-2-(4-toluenesulfonylamino)-phenyl]-4-toluamide]",99 µM

# Now from value to molecule:
row,IC50,Structure (SMILES)
1,557 µM,"COc1ccc(Oc2ccc(NCc3ccc(C#N)cc3)c(NS(=O)(=O)c3ccc(C)cc3)c2)cc1 [Compound 71d, N-[2-(4-cyano-benzylamino)-5-(4-methoxy-phenoxy)-phenyl]-4-toluenesulfonamide]"
2,172 µM,"COc1ccc(Oc2ccc(NS(=O)(=O)c3ccc(C)cc3)c(N(C)S(=O)(=O)c3ccc(C)cc3)c2)cc1 [Compound 71dd, N-[4-(4-methoxy-phenoxy)-2-(4-toluenesulfonyl-methyl-amino)-phenyl]-4-toluenesulfonamide]"
3,203 µM,"COc1ccc(Oc2ccc(NCc3ccc(NC(C)=O)cc3)c(NS(=O)(=O)c3ccc(C)cc3)c2)cc1 [Compound 71e, N-(4-{[4-(4-methoxy-phenoxy)-2-(4-toluenesulfonylamino)-phenylamino]-methyl}-phenyl)-acetamide]"
4,627 µM,"COc1ccc(Oc2ccc(NCc3cc4ccccc4o3)c(NS(=O)(=O)c3ccc(C)cc3)c2)cc1 [Compound 71f, N-[2-[(benzofuran-2-ylmethyl)-amino]-5-(4-methoxy-phenoxy)-phenyl]-4-toluenesulfonamide]"
5,1300 µM,"COc1ccc(Oc2ccc(NS(=O)(=O)c3ccc(C)cc3)c(CN)c2)cc1 [Compound 71n, N-[2-aminomethyl-4-(4-methoxy-phenoxy)-phenyl]-4-toluenesulfonamide]"
6,39 µM,"Cc1ccc(S(=O)(=O)Nc2ccc(NC(=O)c3ccccc3)cc2N(C(=O)c2ccccc2)S(=O)(=O)c2ccc(C)cc2)cc1 [Compound 71o, N-[3-[benzoyl-(4-toluenesulfonyl)-amino]-4-(4-toluenesulfonylamino)-phenyl]-benzamide]"
7,108 µM,"COc1ccc(Oc2ccc(NS(=O)(=O)c3ccc(C)cc3)c(CNC(=O)c3ccc(C)cc3)c2)cc1 [Compound 71p, N-[5-(4-methoxy-phenoxy)-2-(4-toluenesulfonylamino)-benzyl]-4-toluamide]"
8,159 µM,"COc1ccc(Oc2ccc(NC(=O)c3ccc(C)cc3)c(NS(=O)(=O)c3ccc(C)cc3)c2)cc1 [Compound 71r, N-[4-(4-methoxy-phenoxy)-2-(4-toluenesulfonylamino)-phenyl]-4-toluamide]"
